Data on 22 molecules can be found in US7964607B2, “Pyrazolo[3,4-d]pyrimidine compounds” (Pfizer Inc., priority 2007, dated 2011).

T1 sequence (O76083 whole entry): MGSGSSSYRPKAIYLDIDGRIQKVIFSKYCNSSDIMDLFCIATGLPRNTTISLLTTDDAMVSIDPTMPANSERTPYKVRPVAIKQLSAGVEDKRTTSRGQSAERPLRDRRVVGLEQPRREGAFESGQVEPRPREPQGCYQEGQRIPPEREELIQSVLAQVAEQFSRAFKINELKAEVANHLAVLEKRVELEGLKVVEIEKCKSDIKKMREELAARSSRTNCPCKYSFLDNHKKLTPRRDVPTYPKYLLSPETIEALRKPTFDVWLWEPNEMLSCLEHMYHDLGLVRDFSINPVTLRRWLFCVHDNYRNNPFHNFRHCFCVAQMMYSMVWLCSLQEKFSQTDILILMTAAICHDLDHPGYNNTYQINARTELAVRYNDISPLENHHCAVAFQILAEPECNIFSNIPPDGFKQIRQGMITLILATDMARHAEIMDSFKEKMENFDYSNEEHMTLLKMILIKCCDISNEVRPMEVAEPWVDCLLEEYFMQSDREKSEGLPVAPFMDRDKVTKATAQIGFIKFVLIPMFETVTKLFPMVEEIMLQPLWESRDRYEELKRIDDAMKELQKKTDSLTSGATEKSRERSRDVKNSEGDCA

The first assay concerns the target T1, human recombinant PDE9 enzyme (Homo sapiens, UniProt O76083).
T1 construct: made in house; host or cells: SF-9 insect cells
Description: Phosphodiesterase 9 (PDE9) inhibitory activity, Scintillation Proximity (SPA) assay. It is filed as biochemical. Conditions: human recombinant PDE9 from SF-9 cells; 50 nM [3H]cGMP; room temperature, 30 min; Examples 3-114; read-out: G5678A (U): IC50. A digest of the protocol: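 Scintillation proximity read-out of [3H]cGMP hydrolysis after 30 min at room temperature, with enzyme addition starting the reaction. The enzyme was human recombinant PDE9 expressed in SF-9 cells, titrated to keep substrate turnover at 20% or less. Compound wells held 2% DMSO final, and background was defined with excess PDE inhibitor.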
For `CC(C)n1ncc2c(=O)[nH]c([C@@H]3CN(Cc4ccnc5ccccc45)C[C@H]3C)nc21` [Example 67], the IC50 is 9.74 nM.

In the case of `Cc1nn(C2CCOCC2)c2nc([C@@H]3CN(Cc4cccnc4)C[C@H]3C)[nH]c(=O)c12` [Example 92, 3-methyl-6-[(3S,4S)-4-methyl-1-(pyridin-3-ylmethyl)pyrrolidin-3-yl]-1-(tetrahydro-2H-pyran-4-yl)-1,5-dihydro-4H-pyrazolo[3,4-d]pyrimidin-4-one], the IC50 came out at 23.3 nM.

As to `O=c1[nH]c([C@@H]2CN(Cc3ccccc3)C[C@H]2CC(F)(F)F)nc2c1cnn2C1CCCC1` (racemic) [Example 62, 6-[(3,4-trans)-1-benzyl-4-(2,2,2-trifluoroethyl)pyrrolidin-3-yl]-1-cyclopentyl-1,5-dihydro-4H-pyrazolo[3,4-d]pyrimidin-4-one], the half-inhibitory concentration (IC50) is 520 nM.

In the case of `CN1C[C@@H](c2nc3c(cnn3C3CCCC3)c(=O)[nH]2)[C@H](C2CC2)C1` (racemic) [Example 57, 1-cyclopentyl-6-[(3,4-trans)-4-cyclopropyl-1-methylpyrrolidin-3-yl]-1,5-dihydro-4H-pyrazolo[3,4-d]pyrimidin-4-one], the concentration for half-maximal inhibition (IC50) stood at 122 nM.

Turning to `CC[C@@H]1CN(Cc2ccccc2)C[C@H]1c1nc2c(cnn2C2CCCC2)c(=O)[nH]1` (racemic) [Example 28, 6-[(3,4-trans)-1-benzyl-4-ethylpyrrolidin-3-yl]-1-cyclopentyl-1,5-dihydro-4H-pyrazolo[3,4-d]pyrimidin-4-one], the half-maximal inhibitory concentration (IC50) came out at 6.86 nM.

For the molecule `COc1ccc2nccc(CN3C[C@@H](C)[C@H](c4nc5c(cnn5C(C)C)c(=O)[nH]4)C3)c2n1` (racemic) [Example 69, 1-isopropyl-6-{(3,4-trans)-1-[(6-methoxy-1,5-naphthyridin-4-yl)methyl]-4-methylpyrrolidin-3-yl}-1,5-dihydro-4H-pyrazolo[3,4-d]pyrimidin-4-one], the IC50 stood at 30.7 nM.

Staying with this assay, now noted: human recombinant PDE9 from SF-9 cells; 50 nM [3H]cGMP; room temperature, 30 min; additional compounds Ex. 115-228; read-out: G5678A (U):IC50.
Take `C[C@@H]1CN(Cc2cccc(C#N)c2)C[C@H]1c1nc2c(cnn2C2CCCC2)c(=O)[nH]1` (racemic) [Example 155, 3-{[(3,4-trans)-3-(1-cyclopentyl-4-oxo-4,5-dihydro-1H-pyrazolo[3,4-d]pyrimidin-6-yl)-4-methylpyrrolidin-1-yl]methyl}benzonitrile]: the IC50 came to 27.9 nM.

As to `Cc1cccc(CN2C[C@@H](C)[C@H](c3nc4c(cnn4C4CCCC4)c(=O)[nH]3)C2)c1C` (racemic) [Example 118, 1-cyclopentyl-6-[(3,4-trans)-1-(2,3-dimethylbenzyl)-4-methylpyrrolidin-3-yl]-1,5-dihydro-4H-pyrazolo[3,4-d]pyrimidin-4-one], the IC50 was determined as 74 nM.

In the case of `C[C@@H]1CN(Cc2cn3ccccc3n2)C[C@H]1c1nc2c(cnn2C2CCCC2)c(=O)[nH]1` (racemic) [Example 178, 1-cyclopentyl-6-[(3,4-trans)-1-(imidazo[1,2-a]pyridin-2-ylmethyl)-4-methylpyrrolidin-3-yl]-1,5-dihydro-4H-pyrazolo[3,4-d]pyrimidin-4-one], the half-inhibitory concentration (IC50) worked out at 44.7 nM.

In the case of `C[C@@H]1CN(Cc2cc(F)ccc2F)C[C@H]1c1nc2c(cnn2C2CCCC2)c(=O)[nH]1` (racemic) [Example 156, 1-cyclopentyl-6-[(3,4-trans)-1-(2,5-difluorobenzyl)-4-methylpyrrolidin-3-yl]-1,5-dihydro-4H-pyrazolo[3,4-d]pyrimidin-4-one], the IC50 is 40.8 nM.

Turning to `COc1cccc(F)c1CN1C[C@@H](C)[C@H](c2nc3c(cnn3C3CCCC3)c(=O)[nH]2)C1` (racemic) [Example 146, 1-cyclopentyl-6-[(3,4-trans)-1-(2-fluoro-6-methoxybenzyl)-4-methylpyrrolidin-3-yl]-1,5-dihydro-4H-pyrazolo[3,4-d]pyrimidin-4-one], the IC50 is 165 nM.

In the case of `C[C@@H]1CN(Cc2cccc3c2OCCO3)C[C@H]1c1nc2c(cnn2C2CCCC2)c(=O)[nH]1` (racemic) [Example 149, 1-cyclopentyl-6-[(3,4-trans)-1-(2,3-dihydro-1,4-benzodioxin-5-ylmethyl)-4-methylpyrrolidin-3-yl]-1,5-dihydro-4H-pyrazolo[3,4-d]pyrimidin-4-one], the IC50 was found to be 47.1 nM.

`C[C@@H]1CN(CC2CCCC2)C[C@H]1c1nc2c(cnn2C2CCCC2)c(=O)[nH]1` (racemic) [Example 205, 1-cyclopentyl-6-[(3,4-trans)-1-(cyclopentylmethyl)-4-methylpyrrolidin-3-yl]-1,5-dihydro-4H-pyrazolo[3,4-d]pyrimidin-4-one]: the IC50 is 286 nM.

For `COc1ccncc1CN1C[C@@H](C)[C@H](c2nc3c(cnn3C3CCCC3)c(=O)[nH]2)C1` (racemic) [Example 171, 1-cyclopentyl-6-{(3,4-trans)-1-[(4-methoxypyridin-3-yl)methyl]-4-methylpyrrolidin-3-yl}-1,5-dihydro-4H-pyrazolo[3,4-d]pyrimidin-4-one], the IC50 was determined as 51.3 nM.

On to `C[C@@H]1CN(CCCC(F)(F)F)C[C@H]1c1nc2c(cnn2C2CCCC2)c(=O)[nH]1` (racemic) [Example 203, 1-cyclopentyl-6-{(3,4-trans)-4-methyl-1-(4,4,4-trifluorobutyl)pyrrolidin-3-yl]-1,5-dihydro-4H-pyrazolo[3,4-d]pyrimidin-4-one], for which the IC50 worked out at 83.7 nM.

On to `C[C@@H]1CN(Cc2ccc(F)cc2Cl)C[C@H]1c1nc2c(cnn2C2CCCC2)c(=O)[nH]1` (racemic) [Example 150, 6-[(3,4-trans)-1-(2-chloro 4-fluorobenzyl)-4-methylpyrrolidin-3-yl]-1-cyclopentyl-1,5-dihydro-4H-pyrazolo[3,4-] pyrimidin-4-one], for which the concentration for half-maximal inhibition (IC50) stood at 93.5 nM.

For the molecule `C[C@@H]1CN(CCOCc2ccccc2)C[C@H]1c1nc2c(cnn2C2CCCC2)c(=O)[nH]1` (racemic) [Example 209, 6-{(3,4-trans)-1-[2-(benzyloxy)ethyl]-4-methylpyrrolidin-3-yl}-1-cyclopentyl-1,5-dihydro-4H-pyrazolo[3,4-d]pyrimidin-4-one], the IC50 was found to be 52.9 nM.

Take `C[C@@H]1CN(Cc2ccc(C(C)(C)O)nc2)C[C@H]1c1nc2c(cnn2C2CCCC2)c(=O)[nH]1` (racemic) [Example 174, 1-cyclopentyl-6-[(3,4-trans)-1-{[6-(1-hydroxy-1-methylethyl)pyridin-3-yl]methyl}-4-methylpyrrolidin-3-yl]-1,5-dihydro-4H-pyrazolo[3,4-d]pyrimidin-4-one]: the half-inhibitory concentration (IC50) was found to be 42 nM.

In the case of `C[C@@H]1CN(Cc2cccc(Cl)c2Cl)C[C@H]1c1nc2c(cnn2C2CCCC2)c(=O)[nH]1` (racemic) [Example 164, 1-cyclopentyl-6-[(3,4-trans)-1-(2,3-dichlorobenzyl)-4-methylpyrrolidin-3-yl]-1,5-dihydro-4H-pyrazolo[3,4-d]pyrimidin-4-one], the IC50 worked out at 78.9 nM.

Regarding `C[C@@H]1CN(Cc2nc3ccccc3n2C)C[C@H]1c1nc2c(cnn2C2CCCC2)c(=O)[nH]1` (racemic) [Example 199, 1-cyclopentyl-6-{(3,4-trans)-4-methyl-1-[(1-methyl-1H-benzimidazol-2-yl)methyl]pyrrolidin-3-yl}-1,5-dihydro-4H-pyrazolo[3,4-d]pyrimidin-4-one], the concentration for half-maximal inhibition (IC50) stood at 35.3 nM.

As for `COc1cc(CN2C[C@@H](C)[C@H](c3nc4c(cnn4C4CCCC4)c(=O)[nH]3)C2)ccc1F` (racemic) [Example 148, 1-cyclopentyl-6-[(3,4-trans)-1-(4-fluoro-3-methoxybenzyl)-4-methylpyrrolidin-3-yl]-1,5-dihydro-4H-pyrazolo[3,4-d]pyrimidin-4-one], the 50% inhibitory concentration (IC50) was found to be 36 nM.

Take `C[C@@H]1CN(Cc2ccno2)C[C@H]1c1nc2c(cnn2C2CCCC2)c(=O)[nH]1` (racemic) [Example 172, 1-cyclopentyl-6-[(3,4-trans)-1-(isoxazol-5-ylmethyl)-4-methylpyrrolidin-3-yl]-1,5-dihydro-4H-pyrazolo[3,4-d]pyrimidin-4-one]: the IC50 stood at 67 nM.
